This note sets out measurements from patent US10100097B2, “GIP-GLP-1 dual agonist compounds and methods” (Zealand Pharma A/S, priority 2012, dated 2018).

Square brackets hold non-standard residues; d marks the D form. Peptide text beside a SMILES is read from it. Aib = CC(C)(N)C(=O)O

For the test, the target named is T1, human GLP-1 R (Homo sapiens, UniProt P43220).
T1 construct: expressed in transfected cells
T1 sequence (P43220 24-463): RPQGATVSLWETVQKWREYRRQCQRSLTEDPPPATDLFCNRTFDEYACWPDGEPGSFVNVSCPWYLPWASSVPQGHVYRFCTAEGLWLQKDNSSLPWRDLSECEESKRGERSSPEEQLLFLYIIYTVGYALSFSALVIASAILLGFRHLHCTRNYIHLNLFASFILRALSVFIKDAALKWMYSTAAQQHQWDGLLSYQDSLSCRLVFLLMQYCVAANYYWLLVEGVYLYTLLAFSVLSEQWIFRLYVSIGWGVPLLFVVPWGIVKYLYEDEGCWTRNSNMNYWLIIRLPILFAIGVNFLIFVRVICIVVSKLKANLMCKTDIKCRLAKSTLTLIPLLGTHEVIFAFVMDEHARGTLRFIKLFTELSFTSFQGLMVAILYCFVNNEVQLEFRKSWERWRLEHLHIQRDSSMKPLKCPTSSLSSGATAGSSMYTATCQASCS
The experiment in a line: Human GLP-1 receptor (GLP-1 R) activity assay, cAMP induction (AlphaScreen cAMP kit). The note with it: HEK293 cells expressing the human GLP-1 R, 15 min at 37° C., average values of multiple determinations, read-out: GLP1 R (EC50 in nM). The class given is cell-based. How it is done:
Human GIP Receptor (GIP R) and GLP-1 Receptor (GLP-1 R) Activity Assay
In vitro effects of peptide conjugates of the invention were assessed by measuring the induction of cAMP following stimulation of the respective receptor by GIP, GLP1 or analogues of these, as outlined in the invention, using the AlphaSceen® cAMP kit from Perkin-Elmer according to instructions. Briefly. HEK293 cells expressing the human GIP R or GLP-1 R (stable cell lines generated through transfection of the cDNA for human GIP R or GLP-1 and selection of stable clones) were seeded at 30,000 cells/well in 96-well microtiter plates coated with 0.01% poly-L-lysine, and grown for 1 day in culture in 200 μl growth medium (DMEM, 10% FCS, Penicillin (100 IU/ml), Streptomycin (100 μg/ml)). On the day of analysis, growth medium was removed and the cells were washed once with […] Tyrode's buffer (Tyrode's Salts (9.6 g/1), 10 mM HEPES, pH 7.4). […] The Assay buffer was removed and cells are lysed in 80 μl Lysis buffer (0.1% w/v BSA, 5 mM HEPES, 0.3% v/v Tween-20) per well. From each well 10 μl lysed cells was transferred to a 384-well plate and mixed with 15 μl bead-mix (1 Unit/15 μl anti-cAMP Acceptor Beads, 1 Unit/15 μl Donor Beads, and 1 Unit/15 μl Biotinylated cAMP in Assay Buffer). The plates were mixed and incubated in the dark for an hour at room temperature before measuring using an Envision™ plate reader (Perkin-Elmer).
(In general: Alpha assays give light when donor and acceptor beads are brought close together.)
In the case of `CC[C@H](C)[C@H](NC(=O)[C@H](CO)NC(=O)[C@H](Cc1ccc(O)cc1)NC(=O)[C@H](CC(=O)O)NC(=O)[C@H](CO)NC(=O)[C@@H](NC(=O)[C@H](Cc1ccccc1)NC(=O)[C@@H](NC(=O)CNC(=O)[C@H](CCC(=O)O)NC(=O)C(C)(C)NC(=O)[C@@H](N)Cc1ccc(O)cc1)[C@@H](C)O)[C@@H](C)O)C(=O)N[C@@H](Cc1ccc(O)cc1)C(=O)N[C@@H](CC(C)C)C(=O)N[C@@H](CCC(=O)O)C(=O)N[C@@H](CO)C(=O)N[C@@H](CCCCN)C(=O)N[C@@H](C)C(=O)N[C@@H](C)C(=O)N[C@@H](Cc1c[nH]cn1)C(=O)N[C@@H](CC(=O)O)C(=O)N[C@@H](Cc1ccccc1)C(=O)N[C@H](C(=O)N[C@@H](CCC(=O)O)C(=O)N[C@@H](Cc1c[nH]c2ccccc12)C(=O)N[C@@H](CC(C)C)C(=O)N[C@@H](CC(C)C)C(=O)N[C@@H](CO)C(=O)N[C@@H](C)C(N)=O)C(C)C` [Compound 41] (H-Y[Aib]EGTFTSDYSIYLESKAAHDFVEWLLSA-NH2), the EC50 worked out at 0.011 nM.
To `CC[C@H](C)[C@H](NC(=O)[C@H](CO)NC(=O)[C@H](Cc1ccc(O)cc1)NC(=O)[C@H](CC(=O)O)NC(=O)[C@H](CO)NC(=O)[C@@H](NC(=O)[C@H](Cc1ccccc1)NC(=O)[C@@H](NC(=O)CNC(=O)[C@H](CCC(=O)O)NC(=O)C(C)(C)NC(=O)[C@@H](N)Cc1ccc(O)cc1)[C@@H](C)O)[C@@H](C)O)C(=O)N[C@@H](Cc1ccc(O)cc1)C(=O)N[C@@H](CC(C)C)C(=O)N[C@@H](CC(=O)O)C(=O)N[C@@H](CCCCN)C(=O)N[C@@H](CCCCN)C(=O)N[C@@H](C)C(=O)N[C@@H](CCC(N)=O)C(=O)N[C@@H](CCCNC(=N)N)C(=O)N[C@@H](C)C(=O)N[C@@H](Cc1ccccc1)C(=O)N[C@H](C(=O)N[C@@H](CC(N)=O)C(=O)N[C@@H](Cc1c[nH]c2ccccc12)C(=O)N[C@@H](CC(C)C)C(=O)N[C@@H](CCCCN)C(=O)N[C@@H](C)C(=O)NC(C)(C)C(=O)N[C@@H](CCCCN)C(N)=O)C(C)C` [Compound 23] (H-Y[Aib]EGTFTSDYSIYLDKKAQRAFVNWLKA[Aib]K-NH2) belongs 0.012 nM; to `CC[C@H](C)[C@H](NC(=O)[C@H](CO)NC(=O)[C@H](Cc1ccc(O)cc1)NC(=O)[C@H](CC(=O)O)NC(=O)[C@H](CO)NC(=O)[C@@H](NC(=O)[C@H](Cc1ccccc1)NC(=O)[C@@H](NC(=O)CNC(=O)[C@H](CCC(=O)O)NC(=O)C(C)(C)NC(=O)[C@@H](N)Cc1ccc(O)cc1)[C@@H](C)O)[C@@H](C)O)C(=O)N[C@@H](Cc1ccc(O)cc1)C(=O)N[C@@H](CC(C)C)C(=O)N[C@@H](CC(=O)O)C(=O)N[C@@H](CCCCN)C(=O)N[C@@H](CCCCN)C(=O)N[C@@H](C)C(=O)N[C@@H](CCC(N)=O)C(=O)N[C@@H](CCCNC(=N)N)C(=O)N[C@@H](C)C(=O)N[C@@H](Cc1ccccc1)C(=O)N[C@H](C(=O)N[C@@H](CC(N)=O)C(=O)N[C@@H](Cc1c[nH]c2ccccc12)C(=O)N[C@@H](CC(C)C)C(=O)N[C@H](C(=O)N[C@@H](C)C(=O)NC(C)(C)C(=O)N[C@@H](CCCCN)C(N)=O)C(C)C)C(C)C` [Compound 21] (H-Y[Aib]EGTFTSDYSIYLDKKAQRAFVNWLVA[Aib]K-NH2), 0.009 nM.
Take `CC[C@H](C)[C@H](NC(=O)[C@H](CO)NC(=O)[C@H](Cc1ccc(O)cc1)NC(=O)[C@H](CC(=O)O)NC(=O)[C@H](CO)NC(=O)[C@@H](NC(=O)[C@H](Cc1ccccc1)NC(=O)[C@@H](NC(=O)CNC(=O)[C@H](CCC(=O)O)NC(=O)C(C)(C)NC(=O)[C@@H](N)Cc1ccc(O)cc1)[C@@H](C)O)[C@@H](C)O)C(=O)N[C@@H](Cc1ccc(O)cc1)C(=O)N[C@@H](CC(C)C)C(=O)N[C@@H](CCC(=O)O)C(=O)N[C@@H](CCCCN)C(=O)N[C@@H](CCCCN)C(=O)N[C@@H](C)C(=O)N[C@@H](CCC(N)=O)C(=O)N[C@@H](CCCCN)C(=O)N[C@@H](CCC(=O)O)C(=O)N[C@@H](Cc1ccccc1)C(=O)N[C@H](C(=O)N[C@@H](CCC(=O)O)C(=O)N[C@@H](Cc1c[nH]c2ccccc12)C(=O)N[C@@H](CC(C)C)C(=O)N[C@@H](CC(C)C)C(=O)N[C@@H](CO)C(=O)N[C@@H](C)C(N)=O)C(C)C` [Compound 39] (H-Y[Aib]EGTFTSDYSIYLEKKAQKEFVEWLLSA-NH2): the EC50 turned out to be 0.011 nM.
In the case of `CC[C@H](C)[C@H](NC(=O)[C@H](CO)NC(=O)[C@H](Cc1ccc(O)cc1)NC(=O)[C@H](CC(=O)O)NC(=O)[C@H](CO)NC(=O)[C@@H](NC(=O)[C@H](Cc1ccccc1)NC(=O)[C@@H](NC(=O)CNC(=O)[C@H](CCC(=O)O)NC(=O)C(C)(C)NC(=O)[C@@H](N)Cc1ccc(O)cc1)[C@@H](C)O)[C@@H](C)O)C(=O)NC(C)(C)C(=O)N[C@@H](CC(C)C)C(=O)N[C@@H](CC(=O)O)C(=O)N[C@@H](CCCCN)C(=O)N[C@@H](CCCCN)C(=O)N[C@@H](C)C(=O)N[C@@H](CCC(N)=O)C(=O)N[C@@H](CCCNC(=N)N)C(=O)N[C@@H](C)C(=O)N[C@@H](Cc1ccccc1)C(=O)N[C@H](C(=O)N[C@@H](CCC(=O)O)C(=O)N[C@@H](Cc1c[nH]c2ccccc12)C(=O)N[C@@H](CC(C)C)C(=O)N[C@@H](CC(C)C)C(=O)N[C@@H](C)C(=O)N[C@@H](CCC(N)=O)C(=O)NCC(=O)N1CCC[C@H]1C(=O)N[C@@H](CO)C(=O)N[C@@H](CO)C(=O)NCC(=O)N[C@@H](C)C(=O)N1CCC[C@H]1C(=O)N1CCC[C@H]1C(=O)N1CCC[C@H]1C(=O)N[C@@H](CO)C(N)=O)C(C)C` [Compound 2] (H-Y[Aib]EGTFTSDYSI[Aib]LDKKAQRAFVEWLLAQGPSSGAPPPS-NH2), the EC50 was determined as 0.015 nM.
In the case of `CC[C@H](C)[C@H](NC(=O)[C@H](CO)NC(=O)[C@H](Cc1ccc(O)cc1)NC(=O)[C@H](CC(=O)O)NC(=O)[C@H](CO)NC(=O)[C@@H](NC(=O)[C@H](Cc1ccccc1)NC(=O)[C@@H](NC(=O)CNC(=O)[C@H](CCC(=O)O)NC(=O)C(C)(C)NC(=O)[C@@H](N)Cc1ccc(O)cc1)[C@@H](C)O)[C@@H](C)O)C(=O)N[C@@H](Cc1ccc(O)cc1)C(=O)N[C@@H](CC(C)C)C(=O)N[C@@H](CCC(=O)O)C(=O)N[C@@H](CCCCN)C(=O)N[C@@H](CCCCN)C(=O)N[C@@H](C)C(=O)N[C@@H](CCC(N)=O)C(=O)N[C@@H](CCCNC(=N)N)C(=O)N[C@@H](C)C(=O)N[C@@H](Cc1ccccc1)C(=O)N[C@H](C(=O)N[C@@H](CC(N)=O)C(=O)N[C@@H](Cc1c[nH]c2ccccc12)C(=O)N[C@@H](CC(C)C)C(=O)N[C@@H](CC(C)C)C(=O)N[C@@H](C)C(=O)NC(C)(C)C(=O)N[C@@H](CCCCN)C(N)=O)C(C)C` [Compound 14] (H-Y[Aib]EGTFTSDYSIYLEKKAQRAFVNWLLA[Aib]K-NH2), the EC50 came to 0.0087 nM.
In the case of `CC[C@H](C)[C@H](NC(=O)[C@H](CO)NC(=O)[C@H](Cc1ccc(O)cc1)NC(=O)[C@H](CC(=O)O)NC(=O)[C@H](CO)NC(=O)[C@@H](NC(=O)[C@H](Cc1ccccc1)NC(=O)[C@@H](NC(=O)CNC(=O)[C@H](CCC(=O)O)NC(=O)C(C)(C)NC(=O)[C@@H](N)Cc1ccc(O)cc1)[C@@H](C)O)[C@@H](C)O)C(=O)N[C@@H](C)C(=O)N[C@@H](CC(C)C)C(=O)N[C@@H](CC(=O)O)C(=O)N[C@@H](CCCCN)C(=O)N[C@@H](CCCCN)C(=O)N[C@@H](C)C(=O)N[C@@H](CCC(N)=O)C(=O)N[C@@H](CCCNC(=N)N)C(=O)N[C@@H](C)C(=O)N[C@@H](Cc1ccccc1)C(=O)N[C@H](C(=O)N[C@@H](CC(N)=O)C(=O)N[C@@H](Cc1c[nH]c2ccccc12)C(=O)N[C@@H](CC(C)C)C(=O)N[C@@H](CC(C)C)C(=O)N[C@@H](C)C(=O)NC(C)(C)C(=O)N[C@@H](CCCCN)C(N)=O)C(C)C` [Compound 12] (H-Y[Aib]EGTFTSDYSIALDKKAQRAFVNWLLA[Aib]K-NH2), the EC50 was found to be 0.01 nM.
To `CC[C@H](C)[C@H](NC(=O)[C@H](CO)NC(=O)[C@H](Cc1ccc(O)cc1)NC(=O)[C@H](CC(=O)O)NC(=O)[C@H](CO)NC(=O)[C@@H](NC(=O)[C@H](Cc1ccccc1)NC(=O)[C@@H](NC(=O)CNC(=O)[C@H](CCC(=O)O)NC(=O)C(C)(C)NC(=O)[C@@H](N)Cc1ccc(O)cc1)[C@@H](C)O)[C@@H](C)O)C(=O)N[C@@H](Cc1ccc(O)cc1)C(=O)N[C@@H](CC(C)C)C(=O)N[C@@H](CC(=O)O)C(=O)N[C@@H](CCC(=O)O)C(=O)N[C@@H](CCCCN)C(=O)N[C@@H](C)C(=O)N[C@@H](C)C(=O)N[C@@H](CCCCN)C(=O)N[C@@H](CC(=O)O)C(=O)N[C@@H](Cc1ccccc1)C(=O)N[C@H](C(=O)N[C@@H](CCC(=O)O)C(=O)N[C@@H](Cc1c[nH]c2ccccc12)C(=O)N[C@@H](CC(C)C)C(=O)N[C@@H](CC(C)C)C(=O)N[C@@H](CO)C(=O)N[C@@H](C)C(N)=O)C(C)C` [Compound 40] (H-Y[Aib]EGTFTSDYSIYLDEKAAKDFVEWLLSA-NH2) belongs 0.022 nM.

A word on the EC50: it is the concentration at which the effect is half-maximal.
